# Experimental data taken from ChEMBL document CHEMBL1123187, “3-Hydroxy-3-methylglutaryl-coenzyme A reductase inhibitors. 5. 6-(Fluoren-9-yl)- and 6-(fluoren-9-ylidenyl)-3,5-dihydroxyhexanoic acids and their lactone derivatives” (J Med Chem, 1986).
# Key:
# [1] = target: T1, 3-hydroxy-3-methylglutaryl-coenzyme A reductase (Rattus norvegicus) (UniProt P51639); experiment: compound was tested for its ability to inhibit solubilized, purified rat liver HMG-CoA reductase, relative to compactin(100)
# T1 sequence (whole entry): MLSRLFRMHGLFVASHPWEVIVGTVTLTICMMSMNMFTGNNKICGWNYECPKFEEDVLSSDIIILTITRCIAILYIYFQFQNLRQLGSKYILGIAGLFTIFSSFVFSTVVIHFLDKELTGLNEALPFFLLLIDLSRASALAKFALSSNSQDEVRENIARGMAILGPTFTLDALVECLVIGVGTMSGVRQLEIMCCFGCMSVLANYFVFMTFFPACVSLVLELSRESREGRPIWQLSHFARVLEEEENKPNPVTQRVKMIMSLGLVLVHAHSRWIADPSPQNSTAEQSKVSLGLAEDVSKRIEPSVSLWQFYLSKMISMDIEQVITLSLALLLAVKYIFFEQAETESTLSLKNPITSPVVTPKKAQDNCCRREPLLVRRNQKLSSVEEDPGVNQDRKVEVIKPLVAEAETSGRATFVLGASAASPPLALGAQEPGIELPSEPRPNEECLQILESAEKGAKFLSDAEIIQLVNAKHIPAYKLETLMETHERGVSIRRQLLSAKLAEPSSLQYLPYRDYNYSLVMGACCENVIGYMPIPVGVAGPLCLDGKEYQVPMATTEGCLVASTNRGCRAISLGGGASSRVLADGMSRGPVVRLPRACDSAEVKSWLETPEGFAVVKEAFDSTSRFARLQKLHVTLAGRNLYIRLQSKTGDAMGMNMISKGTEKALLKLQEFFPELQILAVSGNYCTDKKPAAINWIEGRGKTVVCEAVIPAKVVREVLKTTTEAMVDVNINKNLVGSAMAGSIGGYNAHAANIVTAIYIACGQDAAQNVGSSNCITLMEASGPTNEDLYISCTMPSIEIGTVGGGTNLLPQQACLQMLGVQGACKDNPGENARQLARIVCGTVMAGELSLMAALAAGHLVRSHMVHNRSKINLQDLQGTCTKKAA
# [2] = target: T1, 3-hydroxy-3-methylglutaryl-coenzyme A reductase (Rattus norvegicus); experiment: Compound was tested for its ability to inhibit solubilized, purified rat liver HMG-CoA reductase, relative to compactin(100)
# [3] = target: T2, 3-hydroxy-3-methylglutaryl-coenzyme A reductase (Rattus norvegicus, UniProt P51639); experiment: Compound was tested in vitro for its ability to inhibit rat liver HMG-CoA reductase
# T2 sequence (P51639 whole entry): T1 sequence (whole entry)
SMILES,Relative potency [1],Relative potency [2],IC50 [3] [nM]
O=C1C[C@H](O)C[C@@H](C=C2c3ccccc3-c3ccccc32)O1,–,1.5,–
O=C1C[C@H](O)C[C@@H](/C=C/c2ccccc2-c2ccccc2)O1,0.63,–,–
Cc1cc(C)cc(-c2cc(C)cc(C)c2/C=C/[C@@H]2C[C@@H](O)CC(=O)O2)c1,80,–,–

# Next, values leading:
Relative potency [1],Relative potency [2],IC50 [3] [nM],SMILES
26,–,–,O=C1C[C@H](O)C[C@@H](/C=C/c2c(Cl)cc(Cl)cc2-c2ccccc2)O1
–,1.7,830,Cc1cc(C)c2c(c1)-c1cc(C)cc(C)c1C2=C[C@@H]1C[C@@H](O)CC(=O)O1
–,14,85,O=C1C[C@H](O)CC(CC2c3cc(F)ccc3-c3cc(Cl)cc(Cl)c32)O1 (stereo partly specified)
100,–,–,O=C1C[C@H](O)C[C@@H](/C=C/c2c(Cl)cc(Cl)cc2-c2ccc(F)cc2)O1
–,1.9,750,Cc1cc(C)c2c(c1)-c1ccccc1/C2=C\[C@@H]1C[C@@H](O)CC(=O)O1
